Results from patent US10183011B2, “Anti-depression compounds” (Board of Regents of the University of Texas System, priority 2009, dated 2019).

Tests used:
[1] = test system: hippocampal neurogenesis in the DG; assay: Comparison of P7C3 compounds and antidepressant drugs: DG BrdU labeling after i.c.v. infusion; assay type: in vivo, mouse; conditions: 10 μM i.c.v. for 7 days
Source text: The neuroprotective efficacies of both P7C3 and P7C3-A20 were next compared to currently marketed antidepressant medications, using screening conditions identical to those by which P7C3 was originally discovered. This experiment was based on the antidepressant actions of P7C3 and P7C3-A20 characterized here, and the dependence on hippocampal neurogenesis for behavioral efficacy of some marketed antidepressant medications in mice.
Proneurogenic efficacies in the DG of P7C3 and P7C3A20 were compared to those of vehicle (artificial cerebrospinal fluid) and several marketed antidepressant compounds (Sigma-Aldrich, St. Louis, Mo.) according to established methods. In brief, mice were housed individually in cages without running wheels or any form of environmental enrichment, in order to create an environment predicted to have as low of a baseline level of hippocampal neurogenesis as possible. Compounds (10 μM, i.c.v.) were administered for 7 days via subcutaneously implanted Alzet osmotic minipumps connected to a cannula directed into the left lateral ventricle, with implantation day designated as day 0. Starting on day 1, mice also received daily injections of BrdU (50 mg/kg, i.p.) at 9 am daily, for 6 days. Twenty four hours after the sixth BrdU injection, mice were transcardially perfused as described above.

histamine receptor = assay: Histamine receptor binding
G93A-SOD1 mutant mice = assay: Neurological score and weight loss in G93A-SOD1 mice, treatment from day 80; assay type: in vivo, mouse; conditions: daily treatment from day 80
Experimental: Neurological score was performed every day starting with compound treatment at 80 days, and was determined as follows: ‘0’=full extension of hind legs away from lateral midline when the test mouse was suspended by its tail, and could hold this for 2 seconds, suspended 2-3 times; ‘1’=collapse or partial collapse of leg extension towards lateral midline (weakness) or trembling of hind legs during tail suspension; ‘2’=toes curl under at least twice during walking of 12 inches, or any part of foot drags along cage bottom/table; ‘3’=rigid paralysis or minimal joint movement, foot not being used for forward motion; and ‘4’=mouse cannot right itself within 30 seconds from either side. Upon reaching a score of 2, animals were given a fresh Petri dish with wet food in the dish daily. When mice achieved a score of 4 for two consecutive days they were euthanized.
Mice were weighed daily starting on the day of initiation of compound administration in order to assess disease progression and readjust compound dosage. A digital balance with a step of 0.01 g was used, and mice were placed in a small plastic container on the scale when weighed. Weight was taken between 11 am and 1 pm every day.

Compound | increase of DG neurogenesis (BrdU labeling) over vehicle [1] | histamine receptor binding (histamine receptor) | other measures of disease progression (neurological score or weight loss) (G93A-SOD1 mutant mice)
OC(CNc1ccccc1)Cn1c2ccc(Br)cc2c2cc(Br)ccc21 (stereo not drawn) [Example P7C3] | about 100% |  | 
COc1cccc(NCC(F)Cn2c3ccc(Br)cc3c3cc(Br)ccc32)c1 (stereo not drawn) [Example P7C3A20, N-(3-(3,6-dibromo-9H-carbazol-9-yl)-2-fluoropropyl)-3-methoxyaniline] |  | no hERG channel binding, histamine receptor binding | did not observe any delay in other measures of disease progression
